The source of these data is patent US6420559B1, “1-(4-arylpiperazin-1-yl)-ω-[N-(α,ω-dicarboximido)]-alkanes useful as uro-selective α1-adrenoceptor blockers” (Ranbaxy Laboratories Limited, priority 1997, dated 2002).

The subject of data set [1] is anaesthetized normotensive rats. The experiment in a line: In vivo blood pressure, anaesthetized normotensive rats, intravenous route. More on the design: species or system rat. The note with it: 0.3 mg/kg intravenous, 3 hours observation. On the procedure: (§1) Antihypertensive effect of selected compounds according to the invention were studied for their ability to lower blood pressure in anaesthetized and conscious normotensive and spontaneously hypertensive rats via intravenous, oral and intraduodenal routes.
Male wistar rats were anaesthetized with urethane (2.5 g/kg). Femoral vein and carotid artery were cannulated. Blood pressure and heart rate were recorded using Statham pressure transducer. Data was recorded on Grass polygraph as well as using online data acquisition system (Buxco AT). Intravenously administered compounds of the invention were initially tested at 0.3 mg/kg over a period of 3 hours for their effect on blood pressure and the results are shown in Table 1. For a select few of the compounds, the blood pressure lowering effect upon intravenous administration was also studied at dosages of 0.03, 0.1, 0.3, and 1 mg/kg.

In data set [2] the test system is conscious freely moving normotensive rats. As to the kind of experiment: Mean arterial blood pressure in conscious freely moving normotensive rats, oral. Format: in vivo, rat. The protocol: Femoral artery of normotensive male wistar rats, maintained on an overnight light diet, were catheterized under pentobarbitone anaesthesia (35 mg/kg). Femoral artery catheter was exteriorized through the neck region for blood pressure recording. […] Blood pressure and heart rate were recorded with the help of Statham pressure transducer on a Grass polygraph and the results are shown in Table 4.

The test system of the next data set is anaesthetized dogs. As to the kind of experiment: In vivo selectivity study, phenylephrine-induced blood pressure and intraurethral pressure in anaesthetized dogs. More on the design: species or system dog. The note with it: iv, against phenylephrine dose response. The protocol: Male mongrel dogs (12-20 Kg) were anaesthetized with pentobarbitone sodium (35 mg/kg, iv). Trachea was intubated for artificial respiration. Femoral artery and femoral vein were cannulated for recording blood pressure and for administration of drug solutions, respectively. Blood pressure was recorded on a polygraph through a pressure transducer. A paramedian incision was made lateral to the penis and the bladder was exposed. Urine was drained through a cannula put directly into the bladder and it was guided into the urethra gently and was placed at the prostatic urethra. Balloon was inflated with 2 cc air and its placement was confirmed by digital pressure. Intraurethral pressure was recorded on the polygraph through a pressure transducer. Graded dose response relationship of phenylephrine (1-16 μg/kg, iv) was obtained on prostatic pressure and blood pressure, prior to administration of the compounds of the present invention. Compounds 2, 9, and 13 (at dosages of 0.01, 0.03, 0.1, and 0.3 mg/kg) were administered intravenously 10 min before obtaining phenylephrine dose response curves. Results were analyzed and pseudo pKB values were calculated as described in Kenny et al (1996).

Data set [3] concerns anaesthetized normotensive rats. The experiment in a line: Mean arterial pressure in anaesthetized normotensive rats, intraduodenal route. It is filed as in vivo, rat. On the procedure:
as §1
Male wistar rats were fasted for 18 hours. Rats were anaesthetized with urethane. Femoral vein and carotid artery were cannulated. A catheter was placed in the duodenum following lapratomy. The compounds of the present invention (at dosages of 0.3, 1, 3 and 10 mg/kg) were administered in the duodenum and blood pressure was monitored for 3 hours.

For data set [4], the system named is conscious spontaneously hypertensive rats. As to the kind of experiment: Systolic blood pressure in conscious spontaneously hypertensive rats, oral. It is filed as in vivo, rat. On the procedure: Spontaneously hypertensive rats weighing between 250-300 g were used in this study. Rats were fasted overnight. Blood pressure was monitored from tail artery using semi-automatic noninvasive blood pressure monitoring apparatus. Compounds of the present invention (at dosages of 1, 3, 10, and 30 mg/kg) were administered orally. Blood pressure was monitored prior to and 1.5, 4, 6 and 24 hours after drug administration.

The target of data set [5] is Muscarinic cholinergic receptor (Rattus norvegicus, UniProt P08483). The experiment in a line: In vitro receptor selectivity, rat trachea. Format: cell-based. On the procedure:
(§2) Selectivity of action of the present compounds was tested against a range of different receptors, e.g., β1- and α2-adrenergic, muscarinic cholinergic, serotoninergic (5-HT2A), histaminergic (H1), angiotensin II, endothelin (ETA and B,), as well as calcium and potassium channels. Rat aorta was used to study the effect of the compounds on 5-HT2A, ETA, calcium and potassium channels. Angiotensin II receptor antagonistic activity was studied in rabbit aorta. Muscarinic cholinergic receptor and ETB receptor antagonistic activity was studied in rat trachea, while guinea pig trachea was used to study H1 receptor antagonistic activity. Electrically stimulated rat vas deferens was used to investigate the effect of α2-adrenoceptors, while β1-adrenoceptor antagonistic activity was studied using electrically stimulated rat ventricular strips. Results of this selectivity study is shown in (Table 2).

In a further data set the test system is Potassium Channel. The experiment in a line: In vitro receptor selectivity, rat aorta. It is filed as cell-based. As to conditions: NE: No effect. On the procedure:
as §2

Another data set addresses α1-adrenergic. As to conditions: cited from earlier work.

The structures appear in SMILES notation. Counter-ions that a name gives are not always drawn. Where only a bound is given, the exact number is not on record here.

Muscarinic cholinergic receptor, sequence (P08483 whole entry): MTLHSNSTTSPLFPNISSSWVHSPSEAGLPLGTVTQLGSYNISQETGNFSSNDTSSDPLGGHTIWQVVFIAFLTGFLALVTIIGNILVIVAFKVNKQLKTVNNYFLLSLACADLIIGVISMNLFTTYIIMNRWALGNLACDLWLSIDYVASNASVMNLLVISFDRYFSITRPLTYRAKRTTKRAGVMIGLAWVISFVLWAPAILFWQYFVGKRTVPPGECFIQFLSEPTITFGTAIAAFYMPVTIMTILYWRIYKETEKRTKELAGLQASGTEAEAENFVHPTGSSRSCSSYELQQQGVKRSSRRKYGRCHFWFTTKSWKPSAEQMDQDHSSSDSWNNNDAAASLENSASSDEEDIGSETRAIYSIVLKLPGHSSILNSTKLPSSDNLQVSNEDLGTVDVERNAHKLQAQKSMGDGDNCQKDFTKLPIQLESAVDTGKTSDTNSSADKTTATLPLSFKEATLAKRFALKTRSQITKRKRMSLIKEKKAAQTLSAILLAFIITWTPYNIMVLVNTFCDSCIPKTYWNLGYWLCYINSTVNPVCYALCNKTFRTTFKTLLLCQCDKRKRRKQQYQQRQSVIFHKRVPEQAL

As usually defined, the melting point is the temperature, or range, at which the solid turns liquid. On to `O=C1CCC(=O)N1CCCN1CCN(c2ccc(F)cc2)CC1` (as salt: hydrochloride) [Compound 1, 1-[4-(4-Fluorophenyl)piperazin-1-yl]-3-(2,5-dioxopyrrolidin-1-yl)propane], for which the melting point lay in the range of 246 to 247 °C.

Molecule `COc1ccccc1N1CCN(CCCN2C(=O)CCC2=O)CC1` (as salt: hydrochloride) [Compound 2, 1-[4-(2-Methoxyphenyl)piperazin-1-yl]-3-(2,5-dioxopyrrolidin-1-yl)propane] returned a melting point of 199 to 202 °C.

As to `O=C1CCCC(=O)N1CCCN1CCN(c2ccc(Cl)cc2)CC1` (as salt: hydrochloride) [Compound 15, 1-[4-(4-Chlorophenyl)piperazin-1-yl]-3-(2,6-dioxopiperidin-1-yl)propane], the melting point lay within 206 to 208 °C.

With `Cc1ccccc1N1CCN(CCCN2C(=O)CCCC2=O)CC1` (as salt: hydrochloride) [Compound 18, 1-[4-(2-Methylphenyl)piperazin-1-yl]-3-(2,6-dioxopiperidin-1-yl)propane], the melting point lay in the range of 206 to 207 °C.

In the case of `O=C1CCC(=O)N1CCCN1CCN(c2ccc(F)cc2)CC1` [Compound 1, 1-[4-(4-Fluorophenyl)piperazin-1-yl]-3-(2,5-dioxopyrrolidin-1-yl)propane], in data set [1], the Duration stood at 15.0 min and the “In Vivo BP Fall in mmHg” value stood at 5.0 mmHg.

Regarding `COc1ccccc1N1CCN(CCCN2C(=O)CCC2=O)CC1` [Compound 2, 1-[4-(2-Methoxyphenyl)piperazin-1-yl]-3-(2,5-dioxopyrrolidin-1-yl)propane], in [1], the Duration is on record as 120.0 min. Besides, the “In Vivo BP Fall in mmHg” value in [1] came out at 25 mmHg. Moreover, the “Mean Arterial Pressure (% Change from basal)” value is reported as −14% in [2] (3 mg/kg oral); −10% in data set [2] (10 mg/kg oral); −19% in data set [3] (1 mg/kg intraduodenal); −43% in data set [3] (3 mg/kg intraduodenal); −42% in [3] (10 mg/kg intraduodenal). In addition, in the data set on anaesthetized dogs, the “pseudo pKB Blood Pressure” value was 6.9. In addition, the “pseudo pKB Intraurethral Pressure” value in the data set with anaesthetized dogs was 7.60. Also, the “Duration of Action” value in data set [3] (1 mg/kg intraduodenal), in data set [3] (3 mg/kg intraduodenal) and in data set [3] (10 mg/kg intraduodenal) was >2.5 h throughout. The “Systolic Pressure (% Change from basal) (at 6 hours)” value is −7.0% in data set [4] (1 mg/kg oral), −12.0% in data set [4] (3 mg/kg oral), −13.0% in [4] (10 mg/kg oral) and −17.0% in [4] (30 mg/kg oral). The “pKB Muscarinic” value in data set [5] is 5.0.

As to `COc1ccccc1N1CCN(CCCCN2C(=O)CCC2=O)CC1` [Compound 9, 1-[4-(2-Methoxyphenyl)piperazin-1-yl]-4-(2,5-dioxopyrrolidin-1-yl)butane], the Duration in [1] is listed as >180 min. Also, the “In Vivo BP Fall in mmHg” value in data set [1] came out at 46 mmHg. The “Mean Arterial Pressure (% Change from basal)” value in [2] (1 mg/kg oral) is on record as −4%; in data set [2] (10 mg/kg oral), −11%; in data set [3] (1 mg/kg intraduodenal), −19%; in data set [3] (3 mg/kg intraduodenal), −53%; in data set [3] (10 mg/kg intraduodenal) it was −57%. The “pseudo pKB Blood Pressure” value in the data set with anaesthetized dogs is given as 7.4. The “pseudo pKB Intraurethral Pressure” value in the data set with anaesthetized dogs was found to be 7.9. The “Duration of Action” value in data set [3] (1 mg/kg intraduodenal), in [3] (3 mg/kg intraduodenal) and in data set [3] (10 mg/kg intraduodenal) was >3.0 h throughout. Moreover, the “Systolic Pressure (% Change from basal) (at 6 hours)” value is −0.4% in data set [4] (1 mg/kg oral), −7.0% in [4] (3 mg/kg oral), −24.0% in data set [4] (10 mg/kg oral) and −25.0% in data set [4] (30 mg/kg oral). In addition, the “pKB Muscarinic” value in data set [5] is recorded as 5.0.

Turning to `COc1ccccc1N1CCN(CCCN2C(=O)CCCC2=O)CC1` [Compound 13, 1-[4-(2-Methoxyphenyl)piperazin-1-yl]-3-(2,6-dioxopiperidin-1-yl)propane], the Duration in data set [1] is reported as >180 min. Further, the “In Vivo BP Fall in mmHg” value in [1] was 50.0 mmHg. For the same molecule, the “Mean Arterial Pressure (% Change from basal)” value in data set [2] (1 mg/kg oral) is reported as −5%; in [2] (3 mg/kg oral), −10%; in data set [3] (1 mg/kg intraduodenal), −32%; in data set [3] (3 mg/kg intraduodenal) it was −40%; in data set [3] (10 mg/kg intraduodenal), −42%. Moreover, in the data set with anaesthetized dogs, the “pseudo pKB Blood Pressure” value is 7.1. In addition, in the data set with anaesthetized dogs, the “pseudo pKB Intraurethral Pressure” value is on record as 8.1. For the same molecule, the “Duration of Action” value was <3.0 h in data set [3] (1 mg/kg intraduodenal), >3.0 h in data set [3] (3 mg/kg intraduodenal) and >3.0 h in data set [3] (10 mg/kg intraduodenal). Moreover, the “pKB Potassium Channel” value with Potassium Channel is on record as 5. The “Systolic Pressure (% Change from basal) (at 6 hours)” value is on record as −7.0% in data set [4] (1 mg/kg oral), −18.0% in [4] (3 mg/kg oral), −19.0% in data set [4] (10 mg/kg oral) and −14.0% in data set [4] (30 mg/kg oral). Besides, in [5], the “pKB Muscarinic” value came to 5.5.

For the molecule `O=C1CCCC(=O)N1CCCN1CCN(c2ccc(F)cc2)CC1` [Compound 14, 1-[4-(4-Fluorophenyl)piperazin-1-yl]-3-(2,6-dioxopiperidin-1-yl)propane], the melting point was 200 to 202 °C. Further, in [1], the Duration worked out at 60.0 min and the “In Vivo BP Fall in mmHg” value was determined as 20.0 mmHg.

Consider `O=C1CCCC(=O)N1CCCN1CCN(c2ccccc2F)CC1` [Compound 17, 1-[4-(2-Fluorophenyl)piperazin-1-yl]-3-(2,6-dioxopiperidin-1-yl)propane], for which, in [1], the Duration is 120.0 min and the “In Vivo BP Fall in mmHg” value came out at 50.0 mmHg.

Take `Cc1ccccc1N1CCN(CCCN2C(=O)CCCC2=O)CC1` [Compound 18, 1-[4-(2-Methylphenyl)piperazin-1-yl]-3-(2,6-dioxopiperidin-1-yl)propane]: in data set [1], the Duration is >150 min and the “In Vivo BP Fall in mmHg” value is 40.0 mmHg.

Consider `COc1cc2nc(N3CCN(C(=O)c4ccco4)CC3)nc(N)c2cc1OC` [prazosin], for which the “α1-adrenergic blocking activity (pKi)” value on α1-adrenergic is listed as > 8.
